In this assay the target is T1, gastrin (CCK2) receptors (Rattus norvegicus, UniProt P30553).
T1 construct: The stomach was excised and flushed with ca. 1 ml of unbuffered physiological saline solution; from tissue; host or cells: isolated whole stomach of immature rats (ca. 21 days old)
T1 sequence (P30553 1-452): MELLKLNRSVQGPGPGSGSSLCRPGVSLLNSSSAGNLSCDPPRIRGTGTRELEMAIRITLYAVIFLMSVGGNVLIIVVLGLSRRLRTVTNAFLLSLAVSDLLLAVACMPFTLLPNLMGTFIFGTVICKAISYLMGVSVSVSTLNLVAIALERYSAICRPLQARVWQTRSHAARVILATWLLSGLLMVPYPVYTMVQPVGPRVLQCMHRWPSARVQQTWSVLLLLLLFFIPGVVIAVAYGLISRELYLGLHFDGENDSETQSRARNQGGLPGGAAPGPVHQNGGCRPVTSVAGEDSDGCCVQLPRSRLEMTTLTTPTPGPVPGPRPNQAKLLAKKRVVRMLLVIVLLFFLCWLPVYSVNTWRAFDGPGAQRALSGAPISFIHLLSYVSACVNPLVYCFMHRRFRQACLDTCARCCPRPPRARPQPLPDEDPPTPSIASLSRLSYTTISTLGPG
Description: gastrin (CCK2) antagonist activity in an immature rat stomach assay. Particulars: pentagastrin dose-response curves, acid secretion, read-out: pKB rat stomach (converted). The procedure: The compounds of the examples were tested for gastrin (CCK2) antagonist activity in an immature rat stomach assay. The procedure was as follows:
The oesophagus of immature rats (33-50 g, ca. 21 days old) was ligated at the level of the cardiac sphincter and the duodenal sphincter was cannulated. The stomach was excised and flushed with ca. 1 ml of unbuffered physiological saline solution. The fundus was punctured and cannulated. A further 4-5 ml of unbuffered solution was flushed through the stomach to ensure the preparation was not leaking. […] The stomach was continuously perfused at a rate of 1 ml min^−1 with unbuffered solution gassed with 100% O2 with the perfusate passing over an internally referenced pH-electrode fixed 12 cm above the stomach.
After 120 min of stabilisation the drugs were added directly to the serosal solution in the organ bath and after a further 60 min cumulative pentagastrin dose-response curves were started.
With `CC(C)(C)C(=O)CN1C(=O)N(CC(=O)NCc2cccc(C(=O)O)c2)N=C(C2CCCCC2)c2ccccc21` [Example 45, 3-({2-[5-Cyclohexyl-1-(3,3-dimethyl-2-oxo-butyl)-2-oxo-1,2-dihydro-3H-1,3,4-benzotriazepin-3-yl]-acetylamino}-methyl)-benzoic acid], the Kb was 93.3 nM.
Turning to `Cc1cccc(NNC(=O)CN2N=C(C3CCCCC3)c3ccccc3N(CC(=O)C(C)(C)C)C2=O)c1` [Example 46, [5-Cyclohexyl-1-(3,3-dimethyl-2-oxo-butyl)-2-oxo-1,2-dihydro-3H-1,3,4-benzotriazepin-3-yl]-acetic acid N′-m-tolyl-hydrazide], the Kb was 174 nM.
`CC(C)(C)C(=O)CN1C(=O)N(CC(=O)Nc2cccc(CSC(=N)N)c2)N=C(C2CCCCC2)c2ccccc21` [Example 49, N-(3-Carbamimidoylsulfanylmethyl-phenyl)-2-[5-cyclohexyl-1-(3,3-dimethyl-2-oxo-butyl)-2-oxo-1,2-dihydro-3H-1,3,4-benzotriazepin-3-yl]-acetamide]: the Kb is 100 nM.
In the case of `CC(C)(C)C(=O)CN1C(=O)N(CC(=O)Nc2cccc(S(=O)(=O)CC(=O)O)c2)N=C(C2CCCCC2)c2ccccc21` [Example 50], the Kb is 11 nM.
With `CC(C)(C)C(=O)CN1C(=O)N(CC(=O)Nc2cccc(NCC(=O)O)c2)N=C(C2CCCCC2)c2ccccc21` [Example 52], the Kb is 32.4 nM.
As to `CC(C)(C)C(=O)CN1C(=O)N(CC(=O)Nc2cccc(C(=O)O)c2)N=C(C23CC4CC(CC(C4)C2)C3)c2ccccc21` [Example 54, 3-{2-[5-Adamantan-1-yl-1-(3,3-dimethyl-2-oxo-butyl)2-oxo-1,2-dihydro-3H-1,3,4-benzotriazepin-3-yl]-acetylamino}-benzoic acid], the Kb was 17 nM.
With `CNc1cccc(NC(=O)CN2N=C(C3CCCCC3)c3ccccc3N(CC(=O)C3CCCC3)C2=O)c1` [Example 57, 2-[5-Cyclohexyl-1-(2-cyclopentyl-2-oxo-ethyl)-2-oxo-1,2-dihydro-3H-1,3,4-benzotriazepin-3-yl]-N-(3-methylaminophenyl)-acetamide], the Kb was 1.17 nM.
`CC(C)(C)C(=O)CN1C(=O)N(CC(=O)Nc2cccc(/C=C/C(=O)O)c2)N=C(C2CCCCC2)c2ccccc21` [Example 60, 3-(3-{2-[5-Cyclohexyl-1-(3,3-dimethyl-2-oxo-butyl)-2-oxo-1,2-dihydro-3H-1,3,4-benzotriazepin-3-yl]-acetylamino}-phenyl)-acrylic acid]: the Kb was 3.47 nM.
For `CC(C)(C)C(=O)CN1C(=O)N(CC(=O)Nc2cccc(CCC(=O)O)c2)N=C(C2CCCCC2)c2ccccc21` [Example 61, 3-(3-{2-[5-Cyclohexyl-1-(3,3-dimethyl-2-oxo-butyl)-2-oxo-1,2-dihydro-3H-1,3,4-benzotriazepin-3-yl]-acetylamino}-phenyl)-propionic acid] the value was 4.47 nM.
With `CC(C)(C)C(=O)CN1C(=O)N(CC(=O)Nc2ccccn2)N=C(C2CCCCC2)c2ccccc21` [Example 63, 2-[5-Cyclohexyl-1-(3,3-dimethyl-2-oxo-butyl)-2-oxo-1,2-dihydro-3H-1,3,4-benzotriazepin-3-yl]-N-pyridin-2-yl-acetamide], the Kb is 661 nM.
As for `CC(=O)N(CC(=O)O)c1cccc(NC(=O)CN2N=C(C3CCCCC3)c3ccccc3N(CC(=O)C(C)(C)C)C2=O)c1` [Example 65, [Acetyl-(3-{2-[5-cyclohexyl-1-(3,3-dimethyl-2-oxo-butyl)-2-oxo-1,2-dihydro-3H-1,3,4-benzotriazepin-3-yl]-acetylamino}-phenyl)-amino]-acetic acid], the Kb was 52.5 nM.
For the compound `CC(C)(C)C(=O)CN1C(=O)N(CC(=O)Nc2cccc(NC(=O)CCC(=O)O)c2)N=C(C2CCCCC2)c2ccccc21` [Example 66, N-(3-{2-[5-Cyclohexyl-1-(3,3-dimethyl-2-oxo-butyl)-2-oxo-1,2-dihydro-3H-1,3,4-benzotriazepin-3-yl]-acetylamino}-phenyl)-succinamic acid], the Kb was 74.1 nM.
On to `CC(C)(C)C(=O)CN1C(=O)N(CC(=O)Nc2cccc(Cc3nnn[nH]3)c2)N=C(C2CCCCC2)c2ccccc21` [Example 67, 2-[5-Cyclohexyl-1-(3,3-dimethyl-2-oxo-butyl)-2-oxo-1,2-dihydro-3H-1,3,4-benzotriazepin-3-yl]-N-[3-(1H-tetrazol-5-ylmethyl)-phenyl]-acetamide], for which the Kb was 77.6 nM.
With `O=C(CN1N=C(C2CCCCC2)c2ccccc2N(CC(=O)N2CCOCC2)C1=O)Nc1cccc(C(=O)O)c1` [Example 68, 3-{2-[5-Cyclohexyl-1-(2-morpholin-4-yl-2-oxo-ethyl)-2-oxo-1,2-dihydro-3H-1,3,4-benzotriazepin-3-yl]-acetylamino}-benzoic acid], the Kb is 81.3 nM.
In the case of `CC(C)(C)C(=O)CN1C(=O)N(CC(=O)Nc2ccc3ccn(CC(=O)O)c3c2)N=C(C2CCCCC2)c2ccccc21` [Example 70, (6-{2-[5-Cyclohexyl-1-(3,3-dimethyl-2-oxo-butyl)-2-oxo-1,2-dihydro-3H-1,3,4-benzotriazepin-3-yl]-acetylamino}-indol-1-yl)-acetic acid], the Kb was 0.851 nM.
As for `CC(C)(C)C(=O)CN1C(=O)N(CC(=O)Nc2cccc(CSCC(=O)O)c2)N=C(C2CCCCC2)c2ccccc21` [Example 71, (3-{2-[5-Cyclohexyl-1-(3,3-dimethyl-2-oxo-butyl)-2-oxo-1,2-dihydro-3H-1,3,4-benzotriazepin-3-yl]-acetylamino}-benzylsulfanyl)-acetic acid], the Kb was 3.8 nM.
For `CNc1cccc(NC(=O)CN2N=C(C3CCCCC3)c3ccccc3N(CC(=O)N3CCN(C)CC3)C2=O)c1` [Example 72, 2-{5-Cyclohexyl-1-[2-(4-methyl-piperazin-1-yl)-2-oxo-ethyl]-2-oxo-1,2-dihydro-3H-1,3,4-benzotriazepin-3-yl}-N-(3-methylamino-phenyl)-acetamide] the value was 263 nM; for `CNc1cc(NC(=O)CN2N=C(C3CCCCC3)c3ccccc3N(CC(=O)C(C)(C)C)C2=O)cc(C(=O)O)c1` [Example 73, 3-{2-[5-Cyclohexyl-1-(3,3-dimethyl-2-oxo-butyl)-2-oxo-1,2-dihydro-3H-1,3,4-benzotriazepin-3-yl]-acetylamino}-5-methylamino-benzoic acid], 67.6 nM; for `CNc1cc(NC(=O)CN2N=C(C3CCCCC3)c3ccccc3N(CC(=O)C(C)(C)C)C2=O)cc(C(=O)OC)c1` [Example 74, 3-{2-[5-Cyclohexyl-1-(3,3-dimethyl-2-oxo-butyl)-2-oxo-1,2-dihydro-3H-1,3,4-benzotriazepin-3-yl]-acetylamino}-5-methylamino-benzoic acid methyl ester], 372 nM.
Consider `CNc1cc(NC(=O)CN2N=C(C3CCCCC3)c3ccccc3N(CC(O)C(C)(C)C)C2=O)cc(C(=O)OC)c1` (centres unmarked) [Example 78, 3-{2-[5-Cyclohexyl-1 (−2-hydroxy-3,3-dimethyl-butyl)-2-oxo-1,2-dihydro-3H-1,3,4-benzotriazepin-3-yl]-acetylamino}-5-methylamino-benzoic acid methyl ester], for which the Kb is 324 nM.
`O=C(CN1N=C(C2CCCCC2)c2ccccc2N(CC(=O)C2CCCCC2)C1=O)Nc1cccc(C(=O)O)c1` [Example 79, 3-{2-[5-Cyclohexyl-1-(2-cyclohexyl-2-oxo-ethyl)-2-oxo-1,2-dihydro-3H-1,3,4-benzotriazepin-3-yl]-acetylamino}-benzoic acid]: the Kb was 2.51 nM.
For `O=C(O)Cc1cccc(NC(=O)CN2N=C(C3CCCCC3)c3ccccc3N(CC(=O)C3CCCCC3)C2=O)c1` [Example 80, (3-{2-[5-Cyclohexyl-1-(2-cyclohexyl-2-oxo-ethyl)-2-oxo-1,2-dihydro-3H-1,3,4-benzotriazepin-3-yl]-acetylamino}-phenyl)-acetic acid], the Kb was 3.39 nM.
For `O=C(O)Cc1cccc(NC(=O)CN2N=C(c3ccccn3)c3ccccc3N(CC(=O)C3CCCC3)C2=O)c1` [Example 81] the value was 72.4 nM.
With `CC1(C(=O)CN2C(=O)N(CC(=O)Nc3cccc(CC(=O)O)c3)N=C(C3CCCCC3)c3ccccc32)CCCC1` [Example 82, [3-(2-{5-Cyclohexyl-1-[2-(1-methyl-cyclopentyl)-2-oxo-ethyl]-2-oxo-1,2-dihydro-3H-1,3,4-benzotriazepin-3-yl}-acetylamino)-phenyl]-acetic acid], the Kb is 9.55 nM.
For `CC(C)(C)C(=O)CN1C(=O)N(CC(=O)Nc2cccc(O)c2)N=C(C2CCCCC2)c2ccccc21` [Example 84, 2-[5-Cyclohexyl-1-(3,3-dimethyl-2-oxo-butyl)-2-oxo-1,2-dihydro-3H-1,3,4-benzotriazepin-3-yl]-N-(3-hydroxy-phenyl)-acetamide] the value was 27.5 nM; for `CC(C)(C)C(=O)CN1C(=O)N(CC(=O)Nc2cccc(SCc3nn[nH]n3)c2)N=C(C2CCCCC2)c2ccccc21` [Example 86, 2-[5-Cyclohexyl-1-(3,3-dimethyl-2-oxo-butyl)-2-oxo-1,2-dihydro-3H-1,3,4-benzotriazepin-3-yl]-N-[3-(4H-tetrazol-5-ylmethylsutfanyl)-phenyl]-acetamide], 3.39 nM.
